From article PMC6934184, “Selective DNA-PKcs inhibition extends the therapeutic index of localized radiotherapy and chemotherapy” (The Journal of Clinical Investigation, 2019)

Target: T1, IKBKB (IKK beta) (Homo sapiens, UniProt O14920)
T1 construct: purchased Thermo Fisher Scientific (Life Technologies) SelectScreen
Assay: SelectScreen Z'LYTE
Type: biochemical
Summary of the method: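 SelectScreen broad panel; activity (Z'LYTE, Adapta) plus binding formats. ATP: Km app for CSF1R Z'LYTE; 10 for CAMK1 Adapta. Readout = % per kinase.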

T1 sequence (O14920 whole entry): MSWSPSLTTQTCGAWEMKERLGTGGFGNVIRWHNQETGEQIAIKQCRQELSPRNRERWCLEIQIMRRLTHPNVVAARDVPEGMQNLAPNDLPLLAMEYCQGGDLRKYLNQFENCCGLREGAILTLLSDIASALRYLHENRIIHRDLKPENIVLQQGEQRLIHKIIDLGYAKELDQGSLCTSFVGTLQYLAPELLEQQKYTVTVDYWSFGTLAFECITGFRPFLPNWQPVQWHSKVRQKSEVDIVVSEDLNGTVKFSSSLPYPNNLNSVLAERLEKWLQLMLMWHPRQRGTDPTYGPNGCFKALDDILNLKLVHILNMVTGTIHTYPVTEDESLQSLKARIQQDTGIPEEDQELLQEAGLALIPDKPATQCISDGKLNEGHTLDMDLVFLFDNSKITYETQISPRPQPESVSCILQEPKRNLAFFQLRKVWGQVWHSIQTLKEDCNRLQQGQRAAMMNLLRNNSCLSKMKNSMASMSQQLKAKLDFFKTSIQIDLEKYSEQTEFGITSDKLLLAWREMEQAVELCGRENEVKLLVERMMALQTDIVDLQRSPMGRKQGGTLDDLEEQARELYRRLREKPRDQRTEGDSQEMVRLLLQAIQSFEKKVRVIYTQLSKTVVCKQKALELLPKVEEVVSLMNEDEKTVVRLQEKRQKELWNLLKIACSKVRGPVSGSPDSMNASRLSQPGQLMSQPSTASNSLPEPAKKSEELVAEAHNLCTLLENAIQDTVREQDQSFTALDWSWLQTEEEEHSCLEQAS

CN(C(=O)CN1CCOCC1)c1ccc2sc3c(-c4cccc5c(=O)cc(N6CC7CCC(C6)O7)oc45)cccc3c2c1 [NU5455]
inhibition at 1 µM: -0.6%
